Source: BindingDB's records for patent US12398118 (Beijing Tide Pharmaceutical, 2025)

Key:
[1] = target: Rho-associated protein kinase 2 (Homo sapiens, UniProt O75116); experiment: Biological Assay
Experimental: Before the assay, the following working solutions as needed were formulated with corresponding reagents according to the instruction of the kinase detection kit: 1×kinase buffer, 5×STK-S2 substrate working solution (1.5 μM) and 5×ATP working solution (1.5 μM), 5×ROCK2 kinase working solution, 4×Streptavidin-XL665 working solution, and 4×STK-Ab-Cryptate 2 detection solution. Then the assay was performed according to the following procedure.A solution of a compound at a concentration of 10000 nM was prepared with the 1×kinase buffer containing 2.5% DMSO. Gradient dilution of the solution of the compound was performed with the kinase buffer containing DMSO, so as to obtain solutions of a test compound at 9 different concentrations. In addition to wells of test compounds, a positive well (containing all the reagents except the compound) and a negative well (containing all the reagents except the test compound and kinase) were set. Except for the control wells (positive and negative wells), a solution of a test compound (4 μL) was added to each of the reaction wells, and a solution of 2.5% DMSO was added to the control wells. Then the substrate ([…], i.e., 2 μL 5×STK-S2 substrate working solution) was added to each of the reaction wells. The 5×ROCK2 kinase working solution (2 μL, containing 1.4 ng ROCK2 kinase) was added to each of the reaction wells except for the negative well, the volume of which was made up with the 1×kinase buffer (2 μL). The 5×ATP working solution (2 μL) was added to each of the reaction wells, and the mixtures were incubated at room temperature for 2 hours. After the kinase reaction was complete, the 4×Streptavidin-XL665 working solution was added to each of the reaction wells, the solutions were mixed, followed by immediate addition of the 4×STK-Ab-Cryptate 2 detection solution (5 μL), and the mixtures were incubated at room temperature for 1 hour.

[2] = target: Rho-associated protein kinase 1 (Homo sapiens, UniProt Q13464); experiment: Biological Assay
Rho-associated protein kinase 1, sequence (Q13464 whole entry): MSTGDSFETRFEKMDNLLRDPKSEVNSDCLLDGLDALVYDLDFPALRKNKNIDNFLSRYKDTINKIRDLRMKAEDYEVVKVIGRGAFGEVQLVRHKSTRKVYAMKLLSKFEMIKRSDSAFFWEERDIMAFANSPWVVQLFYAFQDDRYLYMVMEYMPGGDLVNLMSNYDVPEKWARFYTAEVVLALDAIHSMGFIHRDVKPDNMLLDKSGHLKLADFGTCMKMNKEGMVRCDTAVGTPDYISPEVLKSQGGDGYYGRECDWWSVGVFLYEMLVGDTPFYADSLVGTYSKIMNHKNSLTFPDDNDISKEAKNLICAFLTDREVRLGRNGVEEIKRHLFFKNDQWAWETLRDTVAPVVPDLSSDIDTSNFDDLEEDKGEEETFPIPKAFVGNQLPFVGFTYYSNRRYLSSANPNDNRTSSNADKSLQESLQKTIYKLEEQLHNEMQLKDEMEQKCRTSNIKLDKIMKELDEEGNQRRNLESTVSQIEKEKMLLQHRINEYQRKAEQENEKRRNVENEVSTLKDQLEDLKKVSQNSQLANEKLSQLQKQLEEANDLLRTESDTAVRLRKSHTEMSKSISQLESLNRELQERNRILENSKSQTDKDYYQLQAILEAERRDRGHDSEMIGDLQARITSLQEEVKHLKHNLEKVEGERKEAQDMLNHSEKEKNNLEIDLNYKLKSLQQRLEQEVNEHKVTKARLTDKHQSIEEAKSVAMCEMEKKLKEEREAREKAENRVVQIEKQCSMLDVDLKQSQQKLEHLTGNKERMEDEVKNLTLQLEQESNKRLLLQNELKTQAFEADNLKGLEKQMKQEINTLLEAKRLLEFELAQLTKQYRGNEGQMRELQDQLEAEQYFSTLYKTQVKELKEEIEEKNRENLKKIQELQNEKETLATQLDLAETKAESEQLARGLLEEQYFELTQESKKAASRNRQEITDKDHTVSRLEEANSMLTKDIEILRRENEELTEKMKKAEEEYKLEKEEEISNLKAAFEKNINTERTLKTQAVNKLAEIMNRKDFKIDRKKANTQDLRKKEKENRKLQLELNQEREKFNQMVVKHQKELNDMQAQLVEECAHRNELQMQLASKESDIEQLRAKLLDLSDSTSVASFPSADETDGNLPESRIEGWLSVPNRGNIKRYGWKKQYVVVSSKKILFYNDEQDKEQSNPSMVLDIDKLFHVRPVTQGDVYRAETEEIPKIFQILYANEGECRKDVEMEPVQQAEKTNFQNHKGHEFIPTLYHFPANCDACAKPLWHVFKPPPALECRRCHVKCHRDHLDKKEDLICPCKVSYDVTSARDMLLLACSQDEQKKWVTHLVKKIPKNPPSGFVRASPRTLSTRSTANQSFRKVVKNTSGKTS

Rho-associated protein kinase 2, sequence (O75116 whole entry): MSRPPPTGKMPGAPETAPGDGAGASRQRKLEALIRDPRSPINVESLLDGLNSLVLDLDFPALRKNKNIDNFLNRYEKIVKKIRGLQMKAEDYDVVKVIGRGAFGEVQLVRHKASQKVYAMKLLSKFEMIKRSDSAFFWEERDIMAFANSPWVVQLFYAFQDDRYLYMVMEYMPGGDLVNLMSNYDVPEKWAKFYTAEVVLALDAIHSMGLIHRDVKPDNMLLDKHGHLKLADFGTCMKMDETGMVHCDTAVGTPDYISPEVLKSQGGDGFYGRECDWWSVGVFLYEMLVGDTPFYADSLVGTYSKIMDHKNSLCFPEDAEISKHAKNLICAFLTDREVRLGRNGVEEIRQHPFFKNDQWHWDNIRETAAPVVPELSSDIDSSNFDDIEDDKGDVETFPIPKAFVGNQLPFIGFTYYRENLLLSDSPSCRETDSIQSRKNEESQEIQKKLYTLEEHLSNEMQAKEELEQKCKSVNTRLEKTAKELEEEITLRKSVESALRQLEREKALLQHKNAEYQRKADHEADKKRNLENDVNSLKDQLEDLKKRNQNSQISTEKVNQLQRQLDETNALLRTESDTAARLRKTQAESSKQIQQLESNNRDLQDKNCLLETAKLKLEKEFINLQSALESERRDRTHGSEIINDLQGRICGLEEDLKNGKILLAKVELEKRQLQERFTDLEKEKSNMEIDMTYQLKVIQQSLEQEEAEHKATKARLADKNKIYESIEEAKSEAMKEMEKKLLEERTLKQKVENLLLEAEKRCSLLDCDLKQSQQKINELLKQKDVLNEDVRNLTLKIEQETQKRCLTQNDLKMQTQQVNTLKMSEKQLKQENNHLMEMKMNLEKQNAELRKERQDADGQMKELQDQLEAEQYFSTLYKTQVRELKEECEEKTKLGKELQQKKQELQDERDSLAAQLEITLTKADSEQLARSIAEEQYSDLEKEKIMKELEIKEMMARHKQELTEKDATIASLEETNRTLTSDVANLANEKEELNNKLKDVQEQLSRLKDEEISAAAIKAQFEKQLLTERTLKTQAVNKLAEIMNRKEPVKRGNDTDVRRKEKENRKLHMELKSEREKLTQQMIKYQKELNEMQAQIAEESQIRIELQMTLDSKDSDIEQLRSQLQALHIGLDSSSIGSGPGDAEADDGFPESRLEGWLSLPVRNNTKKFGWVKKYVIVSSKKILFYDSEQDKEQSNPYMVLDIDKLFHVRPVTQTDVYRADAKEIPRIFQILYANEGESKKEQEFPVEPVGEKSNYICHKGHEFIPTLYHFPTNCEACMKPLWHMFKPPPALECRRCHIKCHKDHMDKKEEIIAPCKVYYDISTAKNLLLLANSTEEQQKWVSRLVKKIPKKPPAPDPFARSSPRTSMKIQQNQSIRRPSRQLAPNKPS

SMILES	IC50 [1]	IC50 [2]
CC(C)(C)OC(=O)N1CCc2sc(-c3ncc(F)c(Nc4ccc5c(=O)[nH]ccc5c4)n3)cc2C1 [US12398118, Compound C28]	6 nM	> 10000 nM
O=C(OC1CCC(F)(F)CC1)N1CCc2cc(-c3ncc(F)c(Nc4ccc5c(=O)[nH]ccc5c4)n3)ccc2C1 [US12398118, Compound C35]	93 nM	> 10000 nM
CC(OC(=O)N1CCc2sc(-c3ncc(F)c(Nc4ccc5c(c4)CCNC5=O)n3)cc2C1)C(F)(F)F (stereo not drawn) [US12398118, Compound C43]	71 nM	
CC(C)(C)OC(=O)N1CCc2sc(-c3ncc(F)c(Nc4ccc5c(N)nccc5c4)n3)cc2C1 [US12398118, Compound C45]	491 nM	> 10000 nM
CC(C)(C)CC(=O)N1CCc2sc(-c3ncc(F)c(Nc4ccc5c(=O)[nH]ccc5c4)n3)cc2C1 [US12398118, Compound C52]	28 nM	> 10000 nM
O=C(OCC(F)(F)F)N1Cc2ccc(-c3ncc(F)c(Nc4ccc5c(=O)[nH]ccc5c4)n3)cc2C1 [US12398118, Compound C72]	24 nM	> 10000 nM
O=C1NCCc2cc(Nc3nc(-c4cc5c(s4)CCN(C(=O)OCC(F)(F)F)C5)ncc3F)ccc21 [US12398118, Compound C75]	37 nM	> 10000 nM
